Test results: paper PMC6905855, “Agonist-specific voltage-dependent gating of lysosomal two-pore Na^+ channels” (eLife, 2019)
Values joined by “and” are separate entries in the source; they are usually repeats but may differ in a detail not shown here. Identical values can stand only once. “Also recorded” adds a separate entry of the source.

Experiments:
[1] = tested on: non-transfected HEK293 cells; experiment: Whole-cell recordings in non-transfected cells; type: cell-based, Homo sapiens
Source text: To our surprise, 5 out of the 23 compounds are well characterized as tri-cyclic anti-depressants (TCAs), which are believed to act on neurotransmitter transporters or voltage-gated Na^+ channels ([Cheng and Bahar, 2019]; [Pancrazio et al., 1998]). We therefore characterized the responses of TPC2 channels to TCAs in detail using electrophysiological methods. We first performed whole-cell recordings in HEK293 cells that were transfected with surface-expressed TPC2 mutant channels (TPC2-L^11L^12-AA; abbreviated as TPC2^LL/AA hereafter). No functional difference was noted between wild-type (WT) TPC2 and TPC2^LL/AA channels in terms of channel permeation and gating properties ([Wang et al., 2012]). To facilitate the detection of TPC2-specific currents, we used symmetric Na^+ solutions in the bath (extracellular) and pipette (cytosolic) solutions ([Wang et al., 2012]).
Whole-cell recordings were performed using pipette electrodes with resistance of 3–5 MΩ. […] All bath solutions were applied via a perfusion system that allowed complete solution exchange within a few seconds. Data were collected using an Axopatch 200A patch clamp amplifier, Digidata 1440, and pClamp 10.2 software (Axon Instruments). […] All experiments were conducted at room temperature (21–23°C), and all recordings were analyzed with pClamp 10.2, and Origin 8.0 (OriginLab, Northampton, MA).

TRPML1 = tested on: T1, TRPML1; experiment: Whole-endolysosome recordings of ITRPML1; type: biochemical; conditions: TRPML1-transfected cells
T1 construct: expressed in transfected cells

hTPC1^R540I = tested on: T2, hTPC1^R540I; experiment: Whole-endolysosome recordings of ITPC1-R540I; type: biochemical, human
T2 construct: expressed in transfected cells; host or cells: Cos1

[2] = tested on: surface-expressing mutant TRPML1 channels (TRPML1^4A); experiment: Whole-cell recordings of ITRPML1-4A; type: cell-based; conditions: TRPML1-4A wc; 100µM; individual cells
TPC2^N653G = tested on: T3, TPC2^N653G; experiment: Whole-endolysosome recordings of ITPC2-N653G; type: biochemical, human; conditions: for PX / PNa, K+: TPC2 N653G, agonist-activated current
T3 construct: expressed in transfected cells

TPC2 I551R = tested on: T4, TPC2 I551R; experiment: Whole-endolysosome recordings of ITPC2-I551R; type: biochemical, human
T4 construct: expressed in transfected cells

Nc1nc2ccc(OC(F)(F)F)cc2s1 [LyNA1, Riluzole]
activation of whole-cell currents in non-transfected cells (in words) [1]: not in non-transfected HEK293 cells | activation of whole-endolysosome ITRPML1 (in words) (TRPML1): no current activation; also recorded: lack of the activation effects

CN(C)CCCN1c2ccccc2CCc2ccc(Cl)cc21 [LyNa-VA1.1, Clomipramine]
effect on ITPC1-R540I (in words) (hTPC1^R540I): dramatic enhancement of inward currents at negative potentials | current, whole-cell ITRPML1-4A [2]: 28.1 pA and 29.7 pA and 114.4 pA and 172.7 pA

CNCCCN1c2ccccc2CCc2ccccc21 [LyNa-VA1.2, Desipramine]
activation of TPC2 N653G (in words) (TPC2^N653G): did not alter the ability of LyNa-VA1.2 to enhance channel activation | PX / PNa, K+ (TPC2^N653G; individual): 0.5576 and 0.6267 and 0.3361 and 0.4961 | PX / PNa, K+ (TPC2^N653G; mean): 0.5041 | activation of ITPC2-I551R (in words) (TPC2 I551R): failed to affect LyNa-VA1.2 activation
